In patent publication US8067582B2 (Bristol-Myers Squibb Company, priority 2007, dated 2011):
Read-outs that look alike come from different tables or passages of the source.

Experiments:
[1] = target: T1, androgen receptor (AR) (Homo sapiens, UniProt P10275); test: MDA-MB-453 Androgen Receptor Transactivation Assay (PSA-Luc reporter, 3 nM DHT); type: cell-based; details: MDA-MB-453 cells, antagonism in presence of 3 nM DHT, 48 hour incubation
T1 sequence (P10275 1-920): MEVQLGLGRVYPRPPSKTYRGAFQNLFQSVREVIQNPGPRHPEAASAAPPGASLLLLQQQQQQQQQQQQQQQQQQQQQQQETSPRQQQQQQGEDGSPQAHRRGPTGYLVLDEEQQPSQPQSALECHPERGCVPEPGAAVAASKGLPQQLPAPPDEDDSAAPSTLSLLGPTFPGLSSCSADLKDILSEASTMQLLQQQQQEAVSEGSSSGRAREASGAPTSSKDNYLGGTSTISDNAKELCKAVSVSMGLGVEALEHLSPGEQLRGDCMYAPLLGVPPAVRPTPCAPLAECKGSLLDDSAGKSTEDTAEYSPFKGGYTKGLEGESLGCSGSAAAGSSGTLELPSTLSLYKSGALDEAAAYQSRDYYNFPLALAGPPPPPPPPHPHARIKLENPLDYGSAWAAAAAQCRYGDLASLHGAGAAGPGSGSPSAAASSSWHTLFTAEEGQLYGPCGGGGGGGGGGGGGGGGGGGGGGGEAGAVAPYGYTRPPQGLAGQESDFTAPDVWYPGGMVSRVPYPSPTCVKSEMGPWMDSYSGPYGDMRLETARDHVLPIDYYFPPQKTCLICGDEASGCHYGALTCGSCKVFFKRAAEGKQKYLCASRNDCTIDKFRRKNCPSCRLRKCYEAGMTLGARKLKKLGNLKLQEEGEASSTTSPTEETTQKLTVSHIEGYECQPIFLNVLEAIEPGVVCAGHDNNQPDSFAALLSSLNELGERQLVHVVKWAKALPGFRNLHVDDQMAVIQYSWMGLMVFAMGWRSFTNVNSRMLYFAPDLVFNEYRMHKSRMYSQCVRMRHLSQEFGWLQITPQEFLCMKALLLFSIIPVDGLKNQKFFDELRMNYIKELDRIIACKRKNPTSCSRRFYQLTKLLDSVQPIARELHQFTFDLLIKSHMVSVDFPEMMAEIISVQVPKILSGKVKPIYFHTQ
Excerpt: Compounds can be tested in a cell based transactivation assay used to measure the antagonism of androgen receptor (AR) transcriptional activity. The transactivation assay provides a means of identifying antagonists that inhibit the effects of the native hormone dihydrotestosterone (DHT). […] The pGL3 PSA-Luc reporter plasmid is comprised of the cDNA for the firefly luciferase gene and the upstream promoter sequences containing the androgen response elements (AREs) of the prostate specific antigen (PSA). This plasmid functions as a reporter for the transcription-modulating activity of the AR. In order to detect antagonists, the transactivation assay is conducted in the presence of constant concentration of the natural AR hormone (DHT) to induce a defined reporter signal. Addition of increasing concentrations of the suspected antagonist will decrease the reporter signal (luciferase activity).
MDA-MB-453 and 22 RV1 cells were maintained in DMEM (Cellgro, Cat. #10-014-CM) or RPMI 1640 (Gibco Cat. #11875-085) respectively and supplemented with 10% FBS (Invitrogen/GIBCO Life Science). Cells were bulk transfected in flasks with 1.3 ug/ml pGL3 PSA-Luc plasmid by using the Lipofectamine 2000 Reagent (Invitrogen, Cat. #11668-019) and serum-free Opti-MEM I media (Invitrogen, Cat #31985-070) according to the manufacturer's optimized conditions. Transfection was conducted at 37° C. with 5% CO2 for 16-18 hours. Following transfection, cells are washed, treated with trypsin, counted, and seeded in a 96-well plate at 30,000 cells per well in DMEM containing 10% Charcoal/Dextran Treated Fetal Bovine Serum (Gibco Cat. #11054-020) for MDA-MB-453 cells or RPMI 1640 (Gibco Cat. #110835) containing 10% FBS (Invitrogen/GIBCO Life Science) for 22 RV1 cells.
Following transfection, cells were incubated in the absence (blank) or presence (control) of 3 nM DHT (Sigma, Cat. #A-8380) and in the presence or absence of the standard antiandrogen bicalutamide or test compounds ranging in concentrations from 10^−10 to 10^−5M. Duplicates were used for each sample. The compound dilutions were performed by the Tecan Genesis (Tecan, Triangle Park, N.C.). After a 48 hour incubation, luciferase activity was measured using the Steady-Glo Luciferase Assay System (Promega, Cat. #E2550) according to manufacturer's specifications and luminescence was measured on a Packard TopCount (PerkinElmer). For each luciferase sample reading, the percent control (in absence of compounds) was calculated as: % Control=100×[averagesample−averageblank]/[averagecontrol−averageblank] Data was plotted and the IC50 value was defined as the concentration of compound that inhibited 50% of the luciferase activity for the controls.
Compounds described herein were tested in the AR transactivation assay described immediately above, using MDA-MB-453 cells.

[2] = tested on: immature castrated male rats; test: Immature Rat Prostate Weight (IRPW) Assay; type: in vivo, rat (Sprague-Dawley); details: for response vs control in vivo at 3 mg/kg: Rattus norvegicus, 96 h, read-out: IRPW SV/FB (% control); for EC50 (increase in organ weight, VP and SV): dosing for 3 days
[3] = immature castrated rats, 3 mpk PO QD × 4 days

Row | Compound | IC50 [1] | other results
1 | Cc1cc(N2C(=O)[C@H]3[C@H]4[C@@H]2OCC[C@@]42O[C@]3(C)C[C@@H]2O)ccc1C#N [Example 122, 4-((1R,2S,4R,5S,8S,12R)-2-hydroxy-4-methyl-6-oxo-9,13-dioxa-7-azatetracyclo[6.3.1.1^1,4.0^5,12]tridec-7-yl)-2-methylbenzonitrile] |  | IC50 ([1]; read-out: IC50): 1710 nM; response vs control in vivo at 3 mg/kg [2, 3]: 90%
2 | C[C@@]12C[C@H](O)[C@]3(CCO[C@H]4[C@@H]3[C@@H]1C(=O)N4c1ccc(C#N)c(Br)c1)O2 [Example 66, 2-Bromo-4-((1R,2S,4R,5S,8S,12R)-2-hydroxy-4-methyl-6-oxo-9,13-dioxa-7-azatetracyclo[6.3.1.1^1,4.0^5,12]tridec-7-yl)benzonitrile] |  | IC50 ([1]; read-out: IC50): 195 nM; response vs control in vivo at 3 mg/kg [2, 3]: 38%
3 | C[C@@]12C[C@H](O)[C@]3(CCO[C@H]4[C@@H]3[C@@H]1C(=O)N4c1ccc(C#N)c(C(F)(F)F)c1)O2 (single isomer, unassigned) [Example 3] | 175 nM | response vs control in vivo at 3 mg/kg ([2]; po): 41%
4 | C[C@@]12C[C@H](NS(=O)(=O)CC(F)(F)F)[C@]3(CCO[C@H]4[C@@H]3[C@@H]1C(=O)N4c1ccc(C#N)c(Cl)c1)O2 [Example 185, N-((1R,2S,4R,5S,8S,12R)-7-(3-Chloro-4-cyanophenyl)-4-methyl-6-oxo-9,13-dioxa-7-azatetracyclo[6.3.1.1^1,4.0^5,12]tridec-2-yl)-2,2,2-trifluoroethanesulfonamide] | 147 nM | response vs control in vivo at 3 mg/kg ([2]; po): 31%
5 | CCC(=O)N[C@H]1C[C@@]23CCO[C@H]4[C@@H]2[C@H](C(=O)N4c2ccc(C#N)c(C(F)(F)F)c2)[C@]1(C)O3 [Example 236, N-((1R,3S,4S,5S,8S,12R)-7-(4-cyano-3-(trifluoromethyl)phenyl)-4-methyl-6-oxo-9,13-dioxa-7-azatetracyclo[6.3.1.1^1,4.0^5,12]tridec-3-yl)propanamide] | 104 nM | response vs control in vivo at 3 mg/kg ([2]; po): 62%
6 | C[C@]12CC[C@H]3[C@@H](CCC4=CC(=O)CC[C@@]43C)[C@@H]1CC[C@@H]2O [T, testosterone, reference compound] |  | EC50 (increase in organ weight, VP and SV) ([2]; immature castrated rats): about 1 mg
7 | CCC(=O)O[C@H]1CC[C@H]2[C@@H]3CCC4=CC(=O)CC[C@]4(C)[C@H]3CC[C@]12C [TP, Testosterone Propionate, reference compound] |  | potency relative to free T ([2]; TP versus free T, immature castrated rats): 10-30 fold; EC50 (increase in organ weight, VP and SV) ([2]; immature castrated rats): ~0.03 mg
8 | Cc1c(N2C(=O)[C@H]3[C@H]4[C@@H]2OCC[C@]42C[C@@H](O)[C@@]3(C)O2)ccc(C#N)c1C(F)(F)F [Example 142, 4-((1S,3R,4S,5S,8S,12R)-3-hydroxy-4-methyl-6-oxo-9,13-dioxa-7-azatetracyclo[6.3.1.1^1,4.0^5,12]tridec-7-yl)-3-methyl-2-(trifluoromethyl)benzonitrile] | 950 nM | 
9 | N#Cc1ccc(N2C(=O)[C@H]3[C@H]4O[C@]5(CCO[C@@H]2[C@@H]35)C[C@@H]4O)cc1C(F)(F)F (single isomer, unassigned) [Example 57] | ≥ 7500 nM | 
10 | C[C@@]12O[C@]3(CCO[C@]4(C)[C@H]3[C@H]1C(=O)N4c1ccc(C#N)c(C(F)(F)F)c1)C[C@@H]2O (single isomer, unassigned) [Example 26] | > 7500 nM | 
11 | CCS(=O)(=O)N[C@H]1C[C@@]23CCO[C@H]4[C@@H]2[C@H](C(=O)N4c2ccc(C#N)c(C(F)(F)F)c2)[C@]1(C)O3 [Example 222, N-((1R,3S,4S,5S,8S,12R)-7-(4-cyano-3-(trifluoromethyl)phenyl)-4-methyl-6-oxo-9,13-dioxa-7-azatetracyclo[6.3.1.1^1,4.0^5,12]tridec-3-yl)ethanesulfonamide] | 58 nM | 
12 | C[C@@]12C[C@@H](NS(=O)(=O)C3CC3)[C@]3(CCO[C@H]4[C@@H]3[C@@H]1C(=O)N4c1ccc(C#N)c(C(F)(F)F)c1)O2 [Example 196, N-((1R,2R,4R,5S,8S,12R)-7-(4-Cyano-3-(trifluoromethyl)phenyl)-4-methyl-6-oxo-9,13-dioxa-7-azatetracyclo[6.3.1.1^1,4.0^5,12]tridec-2-yl)cyclopropanesulfonamide] | 46 nM | 
13 | CCC(=O)N[C@H]1C[C@@]2(C)O[C@@]13CCO[C@H]1[C@@H]3[C@@H]2C(=O)N1c1ccc(C#N)c(Cl)c1 [Example 214, N-((1R,2S,4R,5S,8S,12R)-7-(3-chloro-4-cyanophenyl)-4-methyl-6-oxo-9,13-dioxa-7-azatetracyclo[6.3.1.1^1,4.0^5,12]tridec-2-yl)propanamide] | 5650 nM | 
14 | C[C@]12O[C@@]3(CCO[C@@]4(C)[C@@H]3[C@@H]1C(=O)N4c1ccc(C#N)c(C(F)(F)F)c1)C[C@H]2O (single isomer, unassigned) [Example 25] | > 7500 nM | 
15 | C[C@@]12C[C@H](NC(=O)OCCO)[C@]3(CCO[C@H]4[C@@H]3[C@@H]1C(=O)N4c1ccc(C#N)c(C(F)(F)F)c1)O2 [Example 162, 2-Hydroxyethyl ((1R,2S,4R,5S,8S,12R)-7-(4-cyano-3-(trifluoromethyl)phenyl)-4-methyl-6-oxo-9,13-dioxa-7-azatetracyclo[6.3.1.1^1,4.0^5,12]tridec-2-yl)carbamate] | 1960 nM | 
16 | C[C@@]12C[C@H](O)[C@]3(CCO[C@H]4[C@@H]3[C@@H]1C(=O)N4c1ccc(F)c(Cl)c1)O2 [Example 15, (1R,2S,4R,5S,8S,12R)-7-(3-chloro-4-fluorophenyl)-2-hydroxy-4-methyl-9,13-dioxa-7-azatetracyclo[6.3.1.1^1,4.0^5,12]tridecan-6-one] |  | IC50 ([1]; read-out: IC50): 10500 nM
17 | N#Cc1ccc(N2C(=O)[C@@H]3[C@@H]4[C@H]2OCC[C@]42O[C@H]3C[C@H]2O)cc1C(F)(F)F (single isomer, unassigned) [Example 55] | 10800 nM | 
18 | C[C@@]12C[C@H](O)[C@]3(CCO[C@H]4[C@@H]3[C@]1(CO)C(=O)N4c1ccc(C#N)c(C(F)(F)F)c1)O2 [Example 24, 4-((1R,2S,4R,5R,8S,12R)-2-hydroxy-5-(hydroxymethyl)-4-methyl-6-oxo-9,13-dioxa-7-azatetracyclo[6.3.1.1^1,4.0^5,12]tridec-7-yl)-2-(trifluoromethyl)benzonitrile] | 5450 nM | 
19 | C[C@@]12C[C@H](O)[C@]3(CCO[C@H]4[C@@H]3[C@]1(C(=O)OCc1ccccc1)C(=O)N4c1ccc(C#N)c(C(F)(F)F)c1)O2 [Example 23, Benzyl (1R,2S,4R,5R,8S,12R)-7-(4-cyano-3-(trifluoromethyl)phenyl)-2-hydroxy-4-methyl-6-oxo-9,13-dioxa-7-azatetracyclo[6.3.1.1^1,4.0^5,12]tridecane-5-carboxylate] | 1200 nM | 
